According to patent publication US12116636B2, “Methods for evaluating tumor cell spheroids using 3D microfluidic cell culture device” (Dana-Farber Cancer Institute, Inc., priority 2017, dated 2024):
Read-outs that look alike come from different tables or passages of the source.

How the values were obtained:
[1] = tested on: off-target kinases; assay: SelectScreen Kinase Profiling, biochemical single point inhibition; settings: 1000 μM
Method: (§1) Biochemical single point inhibition and IC50 concentrations for TBK1, IKKε (IKBKE), and off-target kinases were determined at ThermoFisher Scientific using SelectScreen Kinase Profiling Services (Madison, WI, USA) (Tables S4A and S4B-1-7). To determine cellular potency, the human colorectal cancer carcinoma cell line HCT116 (ATCC, Manassas, VA) was maintained in T175 flasks in complete RPMI medium; RPMI 1640 supplemented with 10% FBS, 1× Penicillin-Streptomycin solution and 1× MEM (non-essential amino acids). HCT116 cells were grown to 90-95% confluency in T175 flasks containing complete RPMI medium and transfected in bulk using Lipofectamine 2000 (Invitrogen, Carlsbad, CA) with 70 μg of ISG54-luciferase reporter plasmid (Elim Biopharmaceuticals Inc., Hayward, CA). The reporter plasmid contains a luciferase gene expression cassette under the transcriptional regulation of the promoter of the human interferon stimulated gene 54 (ISG54). Transfection of the cells was allowed to take place for 6 hours, after which the cells were harvested by treatment with 0.25% trypsin EDTA (Corning Inc., Corning, NY). Trypsinized cells were added to 384-well poly-d-lysine treated black clear bottom tissue culture assay plates (Greiner Bio-One GmbH, Kremsmunster, Austria) at a density of 20,000 cells/well in 80 μL of complete RPMI medium and incubated overnight. After 16-18 hours post-transfection, the assay plates were washed with PBS (Corning Inc., Corning, NY), followed by addition of 80 μL/well of serum-free RPMI 1640 medium containing 1× Penicillin-Streptomycin solution, 1× MEM and 350 nL of DMSO or titrations of Compound 1. Compound 1 titrations were generated by 1.5-fold dilution steps in two overlapping serial dilution series to generate a 40-point compound dose range. After incubation at 37° C. for 1 hour, the cells were stimulated with Poly(I:C) (InvivoGen, San Diego, CA) at a final concentration of 15 μg/mL in Optimem media (Life Technologies, Rockville, MD). The assay plates were incubated for 5 hours at 37° C., followed by addition of One-Glo luciferase firefly reagent (Promega, Madison, WI) at 1:1 volume/well and luminescence was measured in an EnVision Multilabel Plate Reader (PerkinElmer, Santa Clara, CA). The EC50 values were calculated from the fit of the dose-response curves to a four-parameter equation. All EC50 values represent geometric mean values of a minimum of four determinations.

[2] = biological target: T1, off-target kinases (Homo sapiens, UniProt Q02156); assay: as above; settings: ATP Km, ZLYTE
T1 sequence (Q02156 1-737): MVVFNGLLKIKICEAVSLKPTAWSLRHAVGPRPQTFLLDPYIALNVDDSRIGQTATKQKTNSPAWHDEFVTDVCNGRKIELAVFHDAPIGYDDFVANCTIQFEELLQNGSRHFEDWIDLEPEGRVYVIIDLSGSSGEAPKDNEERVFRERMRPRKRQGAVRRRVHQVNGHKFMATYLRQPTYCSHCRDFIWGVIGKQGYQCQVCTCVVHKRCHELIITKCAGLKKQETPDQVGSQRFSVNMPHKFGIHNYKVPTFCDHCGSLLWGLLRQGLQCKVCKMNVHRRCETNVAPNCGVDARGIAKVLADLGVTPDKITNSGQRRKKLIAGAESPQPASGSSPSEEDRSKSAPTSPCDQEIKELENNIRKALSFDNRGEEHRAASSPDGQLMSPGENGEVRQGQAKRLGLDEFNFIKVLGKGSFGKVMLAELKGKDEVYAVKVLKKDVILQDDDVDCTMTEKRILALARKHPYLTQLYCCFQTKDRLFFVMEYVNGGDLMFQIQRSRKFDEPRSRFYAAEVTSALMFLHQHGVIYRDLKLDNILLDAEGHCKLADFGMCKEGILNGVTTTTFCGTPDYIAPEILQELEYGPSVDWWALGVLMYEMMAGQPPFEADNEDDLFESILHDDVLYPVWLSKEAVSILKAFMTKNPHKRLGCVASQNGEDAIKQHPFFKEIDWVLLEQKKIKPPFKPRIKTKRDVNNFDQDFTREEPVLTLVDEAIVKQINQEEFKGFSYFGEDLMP
Method: as §1

[3] = biological target: off-target kinases (Homo sapiens, UniProt Q16644); assay: as above; settings: MAPKAPK3, ATP Km app, ZLYTE
Chain of off-target kinases (Homo sapiens, UniProt Q16644) (Q16644 whole entry): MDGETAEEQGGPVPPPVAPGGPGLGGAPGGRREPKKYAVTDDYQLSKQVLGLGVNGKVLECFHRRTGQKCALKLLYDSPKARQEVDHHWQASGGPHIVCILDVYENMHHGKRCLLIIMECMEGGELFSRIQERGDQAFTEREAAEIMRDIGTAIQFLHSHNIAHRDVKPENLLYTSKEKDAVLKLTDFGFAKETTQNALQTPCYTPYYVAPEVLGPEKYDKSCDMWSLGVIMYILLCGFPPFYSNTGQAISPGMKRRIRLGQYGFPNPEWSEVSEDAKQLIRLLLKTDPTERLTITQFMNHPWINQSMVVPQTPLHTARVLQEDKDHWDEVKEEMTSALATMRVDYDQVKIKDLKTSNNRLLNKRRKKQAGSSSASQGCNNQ
Method: as §1

[4] = tested on: human CD4+ and CD8+ T cells; assay: IFNγ in supernatant of anti-CD3/anti-CD28 stimulated T cells; format: cell-based; settings: dose-titration, 96 hours
Method: Freshly isolated human CD4+ and CD8+ T cells were obtained from AllCells (Alameda, CA, USA). Cells were spun down and resuspended in serum free Xvivol5 media (Lonza Walkersville, Inc., Chicago, IL, USA) supplemented with 5 ng/mL […] and incubated overnight at 37° C. Cells were plated on anti-CD3 coated plates (5 μg/mL OKT3, eBioscience™, Dallas, TX, USA, overnight) with 2 μg/mL anti-CD28 (eBioscience™, Dallas, TX, USA). Cells are treated in replicate plates with a dose-titration of Compound 1 for 24 hours for IL-2 and 96 hours for IFNT. IL-2 and IFNγ in the supernatant were measured using single- or multi-plex immunoassay (Mesoscale Discovery, Rockville, MD, USA). Jurkat T cell leukemia cells (clone E61 obtained from ATCC) plated on anti-CD3 coated plates were treated with a dose titration of Compound 1 for 24 hours. IL-2 in the supernatant was measured as described above.

[5] = tested on: MC38 allograft; assay: In vivo Compound 1 combination treatment, allograft; parameters: species or system B6 mice; settings: Cmpd1 + αPD-L1; not significant vs single-agent PD-L1
[6] = EGFR (ErbB1) d746-750 (mutant), LanthaScreen Binding
[7] = PRKCB2 (PKC beta II), ATP Km app, ZLYTE
[8] = TEK (TIE2) mutant (mutation name not given), LanthaScreen

SMILES: N#Cc1cc(-c2ncnc(Nc3ccc(N4CCN(C5COC5)CC4)cc3)n2)ccc1OC1CCOCC1 [Compound 1, 5-(4-((4-(4-(oxetan-3-yl)piperazin-1-yl)phenyl)amino)-1,3,5-triazin-2-yl)-2-((tetrahydro-2H-pyran-4-yl)oxy)benzonitrile]
- % Inhibition 1 [1, 6]: 14%
- % Inhibition 2 [1, 6]: 13%
- % Inhibition Avg [1, 6]: 14%
- % Inhibition 1 ([1]; FLT3 ITD, LanthaScreen Binding): 64%
- % Inhibition 2 ([1]; FLT3 ITD, LanthaScreen Binding): 62%
- % Inhibition Avg ([1]; FLT3 ITD, LanthaScreen Binding): 63%
- % Inhibition 1 ([1]; FYN A, LanthaScreen Binding): 16%
- % Inhibition Avg ([1]; FYN A, LanthaScreen Binding): 18%
- % Inhibition 1 ([1]; LYN B, ATP Km app, ZLYTE): 56%
- % Inhibition 2 ([1]; LYN B, ATP Km app, ZLYTE): 50%
- % Inhibition Avg ([1]; LYN B, ATP Km app, ZLYTE): 53%
- % Inhibition 2 ([1]; MAP3K7/MAP3K7IP1 (TAK1-TAB1), LanthaScreen Binding): 22%
- % Inhibition 1 [1, 7]: 12%
- % Inhibition 2 [1, 7]: 8%
- % Inhibition Avg [1, 7]: 10%
- % Inhibition 1 ([1]; SRC N1, ATP Km app, ZLYTE): 54%
- % Inhibition 2 ([1]; SRC N1, ATP Km app, ZLYTE): 60%
- % Inhibition Avg ([1]; SRC N1, ATP Km app, ZLYTE): 57%
- % Inhibition 1 [1, 8]: 40%
- % Inhibition 2 [1, 8]: 41%
- % Inhibition Avg [1, 8]: 41%
- inhibition ([2]; PRKCE (PKC), read-out: % Inhibition 1): 1%
- inhibition ([2]; PRKCE (PKC), read-out: % Inhibition Avg): -3%
- inhibition ([2]; PRKCE PKC, read-out: % Inhibition 2): -6%
- inhibition ([3]; read-out: % Inhibition 1): 1%
- inhibition ([3]; read-out: % Inhibition 2): -8%
- inhibition ([3]; read-out: % Inhibition Avg): -3%
- secretion of IFN-7 from purified CD4+ and CD8+ T cells [4]: enhanced secretion
- in vivo survival, MC38 model, combination treatment [5]: enhanced
